Results: patent US10597388B2, “Pyridazinone herbicides” (FMC CORPORATION, priority 2014, dated 2020)

Legend:
Test in all cases: Test D controlled growth environment herbicide test, pre- and postemergence
Type in all cases: in vivo
[1] = test system: Russian thistle (Salsola kali)
In short: (§1)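 Pre-emergence: seeds sown in silt loam soil were sprayed with compound in a non-phytotoxic solvent mix containing surfactant. Post-emergence: plants at 2 to 18 cm (1- to 4-leaf stage) in peat moss/vermiculite medium got the same formulation. Visual 0–100 rating versus controls after 14 to 21 d.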

[2] = test system: blackgrass (Alopecurus myosuroides)
In short: as §1

[3] = test system: bromegrass, downy (downy bromegrass, Bromus tectorum)
In short: as §1

[4] = test system: buckwheat, wild (wild buckwheat, Polygonum convolvulus)
In short: as §1

[5] = test system: chamomile (scentless chamomile, Matricaria inodora)
In short: as §1

[6] = test system: field violet (Viola arvensis)
In short: as §1

[7] = test system: galium (catchweed bedstraw, Galium aparine)
In short: as §1

kochia (Kochia scoparia) = test system: kochia (Kochia scoparia)
In short: as §1

[8] = test system: lambsquarters (Chenopodium album)
In short: as §1

[9] = test system: oat, wild (wild oat, Avena fatua)
In short: as §1

[10] = test system: oilseed rape (Brassica napus)
In short: as §1

[11] = test system: pigweed (Amaranthus retroflexus)
In short: as §1

[12] = test system: speedwell (bird's-eye speedwell, Veronica persica)
In short: as §1

[13] = Postemergence, 31 g ai/ha, scale 0 to 100 (0 no effect, 100 complete control)
[14] = Postemergence, 125 g ai/ha, visual rating on scale 0 (no effect) to 100 (complete control), 14 to 21 d
[15] = Postemergence, 250 g ai/ha, scale 0 to 100 (0 no effect, 100 complete control)
[16] = Preemergence, 125 g ai/ha, scale 0 to 100 (0 no effect, 100 complete control)
[17] = Preemergence, 250 g ai/ha, scale 0 to 100 (0 no effect, 100 complete control)
[18] = postemergence, 62 g ai/ha, scale 0 to 100, 0 no effect, 100 complete control
[19] = Preemergence, 62 g ai/ha, scale 0 to 100 (0 no effect, 100 complete control)

C#CCOC(=O)Oc1c(C)nn(C)c(=O)c1-c1c(C)sc2ccc(C)cc12 [Compound 87]
40: Plant response rating (scale of 0 to 100), Galium ([7]; Preemergence, 62 g ai/ha) | Plant response rating, Oilseed Rape [10, 18]
80: Plant response rating, Blackgrass [2, 16] | Plant response rating, Blackgrass [2, 17] | Plant response rating, Bromegrass, Downy [3, 17] | Field Violet plant response rating [6, 13] | Plant response rating (scale of 0 to 100), Field Violet ([6]; Preemergence, 31 g ai/ha) | Plant response rating, Galium [7, 17] | Plant response rating (scale of 0 to 100), Oat, Wild ([9]; Preemergence, 31 g ai/ha) | Plant response rating, Speedwell [12, 15] | Plant response rating (scale of 0 to 100), Speedwell ([12]; Preemergence, 31 g ai/ha)
65: Plant response rating, Russian Thistle [1, 14] | Plant response rating, Russian Thistle [1, 18] | Blackgrass plant response rating [2, 13] | Plant response rating, Bromegrass, Downy [3, 14] | Plant response rating, Bromegrass, Downy [3, 15] | Plant response rating, Bromegrass, Downy [3, 19] | Plant response rating, Bromegrass, Downy [3, 18] | Plant response rating, Oilseed Rape [10, 14]
0: Plant response rating (scale of 0 to 100), Buckwheat, Wild ([4]; Preemergence, 31 g ai/ha) | Plant response rating, Buckwheat, Wild [4, 19] | Plant response rating, Buckwheat, Wild [4, 16] | Plant response rating (scale of 0 to 100), Kochia (kochia (Kochia scoparia); Preemergence, 31 g ai/ha)
50: Plant response rating (scale of 0 to 100), Pigweed ([11]; Preemergence, 31 g ai/ha)
60: Russian Thistle plant response rating [1, 13] | Plant response rating, Buckwheat, Wild [4, 17] | Plant response rating, Galium [7, 16]
70: Plant response rating (scale of 0 to 100), Blackgrass ([2]; Preemergence, 31 g ai/ha) | Plant response rating (scale of 0 to 100), Lambsquarters ([8]; Preemergence, 31 g ai/ha) | Speedwell plant response rating [12, 13]
45: Bromegrass, Downy plant response rating [3, 13] | Plant response rating, Oilseed Rape [10, 17]
25: Plant response rating (scale of 0 to 100), Bromegrass, Downy ([3]; Preemergence, 31 g ai/ha)
98: Plant response rating, Oat, Wild [9, 14]
100: Plant response rating, Russian Thistle [1, 17] | Plant response rating, Buckwheat, Wild [4, 14] | Plant response rating, Buckwheat, Wild [4, 15] | Plant response rating, Buckwheat, Wild [4, 18] | Plant response rating, Chamomile [5, 14] | Plant response rating, Chamomile [5, 15] | Plant response rating, Chamomile [5, 16] | Plant response rating, Chamomile [5, 17] | Plant response rating, Chamomile [5, 18] | Plant response rating, Field Violet [6, 14] | Plant response rating, Field Violet [6, 15] | Plant response rating, Field Violet [6, 17] | Plant response rating, Galium [7, 14] | Plant response rating, Galium [7, 15] | Plant response rating, Galium [7, 18] | Plant response rating, Kochia (kochia (Kochia scoparia); [16]) | Plant response rating, Kochia (kochia (Kochia scoparia); [17]) | Plant response rating, Lambsquarters [8, 14] | Plant response rating, Lambsquarters [8, 15] | Plant response rating (scale of 0 to 100), Lambsquarters ([8]; Preemergence, 62 g ai/ha) | Plant response rating, Lambsquarters [8, 16] | Plant response rating, Lambsquarters [8, 17] | Plant response rating, Lambsquarters [8, 18] | Plant response rating, Oat, Wild [9, 15] | Plant response rating, Pigweed [11, 14] | Plant response rating, Pigweed [11, 15] | Plant response rating (scale of 0 to 100), Pigweed ([11]; Preemergence, 62 g ai/ha) | Plant response rating, Pigweed [11, 16] | Plant response rating, Pigweed [11, 17] | Plant response rating, Pigweed [11, 18] | Plant response rating, Speedwell [12, 17]
15: Plant response rating (scale of 0 to 100), Russian Thistle ([1]; Preemergence, 62 g ai/ha) | Plant response rating (scale of 0 to 100), Galium ([7]; Preemergence, 31 g ai/ha) | Oilseed Rape plant response rating [10, 13] | Plant response rating (scale of 0 to 100), Oilseed Rape ([10]; Preemergence, 31 g ai/ha)
85: Plant response rating, Russian Thistle [1, 16] | Plant response rating, Blackgrass [2, 14] | Buckwheat, Wild plant response rating [4, 13] | Plant response rating (scale of 0 to 100), Field Violet ([6]; Preemergence, 62 g ai/ha) | Plant response rating, Field Violet [6, 18] | Galium plant response rating [7, 13] | Kochia plant response rating (kochia (Kochia scoparia); [13]) | Oat, Wild plant response rating [9, 13] | Plant response rating (scale of 0 to 100), Oat, Wild ([9]; Preemergence, 62 g ai/ha) | Plant response rating (scale of 0 to 100), Speedwell ([12]; Preemergence, 62 g ai/ha)
90: Plant response rating, Blackgrass [2, 15] | Chamomile plant response rating [5, 13] | Plant response rating, Kochia (kochia (Kochia scoparia); [14]) | Plant response rating, Kochia (kochia (Kochia scoparia); [18]) | Plant response rating, Oat, Wild [9, 16] | Plant response rating, Speedwell [12, 16]
75: Plant response rating, Russian Thistle [1, 15] | Plant response rating, Blackgrass [2, 19] | Plant response rating, Blackgrass [2, 18] | Plant response rating, Bromegrass, Downy [3, 16] | Plant response rating, Oilseed Rape [10, 15] | Plant response rating, Speedwell [12, 14] | Plant response rating, Speedwell [12, 18]
95: Plant response rating (scale of 0 to 100), Chamomile ([5]; Preemergence, 31 g ai/ha) | Plant response rating (scale of 0 to 100), Chamomile ([5]; Preemergence, 62 g ai/ha) | Plant response rating, Field Violet [6, 16] | Plant response rating, Kochia (kochia (Kochia scoparia); [15]) | Lambsquarters plant response rating [8, 13] | Plant response rating, Oat, Wild [9, 17] | Plant response rating, Oat, Wild [9, 18] | Pigweed plant response rating [11, 13]
5: Plant response rating (scale of 0 to 100), Russian Thistle ([1]; Preemergence, 31 g ai/ha)
55: Plant response rating (scale of 0 to 100), Kochia (kochia (Kochia scoparia); Preemergence, 62 g ai/ha)
30: Plant response rating (scale of 0 to 100), Oilseed Rape ([10]; Preemergence, 62 g ai/ha) | Plant response rating, Oilseed Rape [10, 16]
